Assay results taken from US10611740B2, “Aryl dihydro-2H-benzo[b][1,4]oxazine sulfonamide and related compounds for use as agonists of RORγ and the treatment of disease” (Lycera Corporation, priority 2015, dated 2020).

How the values were obtained:
RORγ-LBD = target: T1, RORγ-LBD (Homo sapiens, UniProt P51449); assay: RORγ-Ligand Binding Domain (LBD) TR-FRET Assay; format: biochemical;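 as to TR-FRET Assay Max Response: 665/615 nm ratio relative to signal without ursolic acid or compound set at 100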
T1 construct: made in house; host or cells: SF9 cells (baculovirus)
T1 sequence (P51449 269-508 limits assumed): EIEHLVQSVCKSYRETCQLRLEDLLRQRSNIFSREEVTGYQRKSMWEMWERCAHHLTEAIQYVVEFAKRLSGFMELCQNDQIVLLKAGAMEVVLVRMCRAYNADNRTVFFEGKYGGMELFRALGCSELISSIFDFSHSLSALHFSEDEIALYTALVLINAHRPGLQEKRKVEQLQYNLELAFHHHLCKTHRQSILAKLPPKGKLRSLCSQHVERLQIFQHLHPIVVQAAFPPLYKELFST
Procedure, shortened: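 Lysate from SF9 cells expressing His-RORγ-LBD is diluted to about 3 nM final in 50 mM Tris pH 7.0 assay buffer. A biotin-tagged SRC1 LXXLL peptide goes in at 200 nM final, plus ursolic acid at 2 μM final. Test compounds carry 1% DMSO final; signal read by TR-FRET.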

Gal4-RORγ-LBD = target: T2, Gal4-RORγ-LBD (Homo sapiens, UniProt P51449); assay: Gal4-RORγ Luciferase Reporter Assay in HEK-293T Cells; format: cell-based; settings: HEK-293 cells
T2 construct: expressed in transfected cells; host or cells: HEK-293 cells (pcDNA3.1neo plasmid)
T2 sequence (P51449 269-508 limits assumed): T1 sequence (P51449 269-508 limits assumed)
Procedure, shortened: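 In transfected HEK-293 cells (Gal4-RORγ-LBD, Gal4-luciferase), test agents with 2 μM ursolic acid were incubated overnight at 37 °C before luminescent detection. Values are relative to the ursolic-acid-free, compound-free signal (100).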

[1] = luciferase reporter, with 2 μM ursolic acid

EC50 (RORγ-LBD) [nM]	EC50 (Gal4-RORγ-LBD; [1]) [nM]	EC50 (Gal4-RORγ-LBD; 2 μM ursolic acid) [nM]	SMILES	TR-FRET Assay Max Response (RORγ-LBD)	Gal4-RORγ Assay Max Response (Gal4-RORγ-LBD; [1])	Gal4-RORγ Assay Max Response (Gal4-RORγ-LBD; 2 μM ursolic acid)
< 500	< 500		COc1cc(F)cc(-c2ccc3c(c2)N(S(=O)(=O)c2cccc(C(F)(F)F)c2)C[C@H](CCNC(=O)C(C)(C)O)O3)c1F [Compound 30F, (S)-N-(2-(6-(2,5-difluoro-3-methoxyphenyl)-4-((3-(trifluoromethyl)phenyl)sulfonyl)-3,4-dihydro-2H-benzo[b][1,4]oxazin-2-yl)ethyl)-2-hydroxy-2-methylpropanamide]	**** (The symbol “****” indicates a value greater than 200)	* (The symbol “*” indicates a value in the range of 25 to 90)	
> 10000	> 10000		Cc1nnc(-c2ccc3c(c2)N(S(=O)(=O)c2cccc(C(F)(F)F)c2)C[C@H](CCC(=O)O)O3)s1 [Compound 2AZ, (S)-3-(6-(5-methyl-1,3,4-thiadiazol-2-yl)-4-((3-(trifluoromethyl)phenyl)-sulfonyl)-3,4-dihydro-2H-benzo[b][1,4]oxazin-2-yl)propanoic acid]		** (The symbol “**” indicates a value in the range of greater than 90 to 150)	
< 500		500 to 5000	CO[C@@H](C)C(=O)NC[C@H]1CN(S(=O)(=O)c2cccc(C(F)(F)F)c2)c2cc(-c3cccc(F)c3Cl)ccc2O1 [Compound 30CI, (S)-N-(((S)-6-(2-chloro-3-fluorophenyl)-4-((3-(trifluoro-methyl)phenyl)sulfonyl)-3,4-dihydro-2H-benzo[b][1,4]-oxazin-2-yl)methyl)-2-methoxypropanamide]	*** (The symbol “***” indicates a value in the range of greater than 150 to 200)		* (The symbol “*” indicates a value in the range of 25 to 90)
< 500		< 500	CC(C)(C[C@H]1CN(S(=O)(=O)c2cccc(C(F)(F)F)c2)c2cc(-c3cccc(C(F)(F)F)c3Cl)ccc2O1)C(=O)O [Compound 32AA, (S)-3-(6-(2-chloro-3-(trifluoromethyl)phenyl)-4-((3-(trifluoromethyl)phenyl)sulfonyl)-3,4-dihydro-2H-benzo[b][1,4]-oxazin-2-yl)-2,2-dimethyl-propanoic acid]	**** (The symbol “****” indicates a value greater than 200)		** (The symbol “**” indicates a value in the range of greater than 90 to 150)
< 500		< 500	O=C(O)[C@@H]1C[C@H]1[C@H]1CN(S(=O)(=O)c2cccc(C(F)(F)F)c2)c2cc(-c3cc(F)cc(OC(F)F)c3)ccc2O1 [Compound 55, (1R,2R)-2-((S)-6-(3-(difluoromethoxy)-5-fluorophenyl)-4-((3-(trifluoromethyl)phenyl)sulfonyl)-3,4-dihydro-2H-benzo[b][1,4]oxazin-2-yl)cyclopropane-1-carboxylic acid]	** (The symbol “**” indicates a value in the range of greater than 90 to 150)		* (The symbol “*” indicates a value in the range of 25 to 90)
< 500	< 500		CC(C)c1cccc(S(=O)(=O)N2C[C@H](CCNC(=O)C(C)(C)O)Oc3ccc(-c4cccc(N(C)C)n4)cc32)c1 [Compound 30G, (S)-N-(2-(6-(6-(dimethylamino)-pyridin-2-yl)-4-((3-isopropyl-phenyl)sulfonyl)-3.,4-dihydro-2H-benzo[b][1,4]oxazin-2-yl)ethyl)-2-hydroxy-2-methylpropanamide]	**** (The symbol “****” indicates a value greater than 200)	* (The symbol “*” indicates a value in the range of 25 to 90)	
500 to 5000	500 to 5000		Cn1ccc(-c2ccc3c(c2)N(S(=O)(=O)c2cccc(C(F)(F)F)c2)C[C@H](CCC(=O)O)O3)n1 [Compound 4W, (S)-3-(6-(1-methyl-1H-pyrazol-3-yl)-4-((3-(trifluoromethyl)-phenyl)sulfonyl)-3,4-dihydro-2H-benzo[b][1,4]oxazin-2-yl)propanoic acid]	**** (The symbol “****” indicates a value greater than 200)	** (The symbol “**” indicates a value in the range of greater than 90 to 150)	
< 500	< 500		C[C@H](O)C(=O)NC[C@H]1CN(S(=O)(=O)c2cccc(C(F)(F)F)c2)c2cc(-c3cc(F)ccc3F)ccc2O1 [Compound 30AE, (S)-N-(((S)-6-(2,5-difluoro-phenyl)-4-((3-(trifluoromethyl)-phenyl)sulfonyl)-3,4-dihydro-2H-benzo[b][1,4]oxazin-2-yl)-methyl)-2-hydroxypropanamide]	*** (The symbol “***” indicates a value in the range of greater than 150 to 200)	** (The symbol “**” indicates a value in the range of greater than 90 to 150)	
< 500		< 500	O=S(=O)(c1cccc(C(F)(F)F)c1)N1C[C@H](CC2(CO)COC2)Oc2ccc(-c3cc(F)cc(OC(F)F)c3)cc21 [Compound 49, (S)-(3-((6-(3-(difluoromethoxy)-5-fluorophenyl)-4-((3-(trifluoromethyl)phenyl)sulfonyl)-3,4-dihydro-2H-benzo[b][1,4]oxazin-2-yl)methyl)oxetan-3-yl)methanol]	** (The symbol “**” indicates a value in the range of greater than 90 to 150)		** (The symbol “**” indicates a value in the range of greater than 90 to 150)
< 500		< 500	O=C(NC[C@H]1CN(S(=O)(=O)c2cccc(C(F)(F)F)c2)c2cc(-c3cccc(F)c3Cl)ccc2O1)C1(CO)CC1 [Compound 30CB, (S)-N-((6-(2-chloro-3-fluoro-phenyl)-4-((3-(trifluoromethyl)-phenyl)sulfonyl)-3,4-dihydro-2H-benzo[b][1,4]oxazin-2-yl)methyl)-1-(hydroxymethyl)-cyclopropane-1-carboxamide]	*** (The symbol “***” indicates a value in the range of greater than 150 to 200)		* (The symbol “*” indicates a value in the range of 25 to 90)
< 500	< 500		O=C(O)C1CCN(C(=O)NCC[C@H]2CN(S(=O)(=O)c3cccc(C(F)(F)F)c3)c3cc(-c4cc(F)ccc4F)ccc3O2)CC1 [Compound 23T, (S)-1-((2-(6-(2,5-difluorophenyl)-4-((3-(trifluoromethyl)phenyl)-sulfonyl)-3,4-dihydro-2H-benzo[b][1,4]oxazin-2-yl)ethyl)carbamoyl)piperidine-4-carboxylic acid]	**** (The symbol “****” indicates a value greater than 200)	** (The symbol “**” indicates a value in the range of greater than 90 to 150)	
< 500		< 500	O=C(O)C1(C[C@H]2CN(S(=O)(=O)c3cccc(C(F)(F)F)c3)c3cc(-c4cc(F)cc(F)c4)ccc3O2)CCC1 [Compound 32BD, (S)-1-((6-(3,5-difluorophenyl)-4-((3-(trifluoromethyl)phenyl)-sulfonyl)-3,4-dihydro-2H-benzo[b][1,4]oxazin-2-yl)methyl)cyclobutane-1-carboxylic acid]	** (The symbol “**” indicates a value in the range of greater than 90 to 150)		** (The symbol “**” indicates a value in the range of greater than 90 to 150)
< 500	< 500		O=C(O)CC[C@H]1CN(S(=O)(=O)c2cccc(OC(F)F)c2)c2cc(-c3cc(F)cc(F)c3Cl)ccc2O1 [Compound 6L, (S)-3-(6-(2-chloro-3,5-difluoro-phenyl)-4-((3-(difluoromethoxy)-phenyl)sulfonyl)-3,4-dihydro-2H-benzo[b][1,4]oxazin-2-yl)propanoic acid]	*** (The symbol “***” indicates a value in the range of greater than 150 to 200)	** (The symbol “**” indicates a value in the range of greater than 90 to 150)	
< 500		500 to 5000	CC(C)(C[C@H]1CN(S(=O)(=O)c2cccc(C(F)(F)F)c2)c2cc(-c3ccccc3C#N)ccc2O1)C(=O)O [Compound 32AF, (S)-3-(6-(2-cyanophenyl)-4-((3-(trifluoromethyl)phenyl)sulfonyl)-3,4-dihydro-2H-benzo[b][1,4]-oxazin-2-yl)-2,2-dimethyl-propanoic acid]	*** (The symbol “***” indicates a value in the range of greater than 150 to 200)		** (The symbol “**” indicates a value in the range of greater than 90 to 150)
< 500	< 500		CC(C)c1cccc(S(=O)(=O)N2C[C@H](CCNC(=O)C(C)(C)O)Oc3ccc(-c4cc(F)ccc4F)cc32)c1 [Compound 30D, (S)-N-(2-(6-(2,5-difluoro-phenyl)-4-((3-isopropylphenyl)-sulfonyl)-3,4-dihydro-2H-benzo[b][1,4]oxazin-2-yl)ethyl)-2-hydroxy-2-methylpropanamide]	**** (The symbol “****” indicates a value greater than 200)	* (The symbol “*” indicates a value in the range of 25 to 90)	
